Test results as given in PubChem BioAssay (NCI).
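Results reflect a 48-hour exposure of cells in 96-well plates to compound at five concentrations. At the TGI there is no net growth.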

Legend:
Assay in all cases: NCI-60 cell line screen, 48 h
[1] = system: HCT-15 colon
[2] = system: SK-MEL-2 melanoma
[3] = system: HCT-116 colon
[4] = system: MDA-MB-435
[5] = system: MDA-N
[6] = system: HL-60(TB) leukemia
[7] = system: SNB-75 CNS
[8] = system: SW-620 colon
[9] = system: OVCAR-3 ovarian
[10] = system: SN12C renal

SMILES | TGI [1] [µM] | TGI [2] [µM] | TGI [3] [µM] | TGI [4] [µM] | TGI [5] [µM] | TGI [6] [µM] | TGI [7] [µM] | TGI [8] [µM] | TGI [9] [µM] | TGI [10] [µM]
Nc1c2ccccc2nc2ccc(C(=O)Nc3ccc(S(N)(=O)=O)cc3)cc12 | > 100 | > 100 | > 100 | > 100 | > 100 | > 100 | > 100 | > 100 | > 100 | > 100
C[N+]12C=CC=C1C(N1CCCC1)c1sc(-c3ccc(Cl)cc3)cc12 (stereo not given) | 90.5 | 21.1 | 29.6 | 29.1 | 30.4 |  | 25.7 | 29.9 | 26.5 | 27.9
COc1cc2c(cc1C)NC(=O)/C2=C/c1c(Cl)n(C)c2ccccc12 | 20.5 | 30.4 | 21.9 | 3.69 | 5.53 | 8.94 | 13.4 | > 100 | 15.3 | 33.3
CCN1CCc2sc3[nH]c(=S)n(C)c(=O)c3c2C1 | > 100 | > 100 | > 100 | > 100 | > 100 | 1.83 | > 100 | > 100 | > 100 | > 100
CC(C)NC(=O)OCc1c(COC(=O)NC(C)C)c(-c2ccc[n+](COC(=O)C3CCCCC3)c2)n2c1CCC2 | > 100 | > 100 | > 100 | > 100 | > 100 | > 100 | > 100 | > 100 | > 100 | > 100
O=S(=O)(N1CCCCN(S(=O)(=O)C(F)(F)F)CCCN(S(=O)(=O)C(F)(F)F)CCCN(S(=O)(=O)C(F)(F)F)CCCCN(S(=O)(=O)C(F)(F)F)CCCN(S(=O)(=O)C(F)(F)F)CCC1)C(F)(F)F | > 100 | > 100 | > 100 | > 100 | > 100 | > 100 | 92.8 | > 100 | > 100 | > 100
CC1=CC(=O)C[C@]2(C)[C@@H](O)CC(C(C)CO)C[C@@H]12 (stereo not given in full) | > 100 | > 100 | > 100 | > 100 | > 100 | > 100 | > 100 | > 100 | > 100 | > 100
O=C1CSC(c2ccc(Cl)cc2)N1c1ccc(-n2c(-c3ccccc3)nc3ccccc3c2=O)cc1 (stereo not given) | > 100 | > 100 | > 100 | > 100 | > 100 |  | 69 | > 100 | > 100 | > 100
Cc1ccc(-c2cn3c(nc4ccccc43)c(C)n2)cc1 | > 100 | > 63.8 | > 100 | 97 | > 100 | > 100 | > 87.6 | > 100 | > 100 | > 100
COc1cc(OC)cc(N(C)Cc2cnc3nc(N)nc(N)c3c2C)c1 | > 100 | > 100 | > 100 | > 100 | > 100 | > 100 | > 100 | > 100 | > 31.6 | > 100
CCOc1c(OC)cc(CNNc2nccs2)cc1OC | > 100 |  | > 100 | > 100 | > 100 | > 100 | > 100 | > 100 | > 100 | > 100
c1ccc(C2(c3cc4ccccc4[nH]3)OCCO2)cc1 | > 100 | > 100 | > 100 | > 100 | > 100 |  | > 100 | > 100 | > 100 | > 100
Cc1[nH]c(=O)nc2c1C(=O)N(C(C)C)C(NC(C)C)S2 (stereo not given) | > 100 | > 100 | > 100 | > 100 | > 100 | > 100 | > 100 | > 100 | > 100 | > 100
CN(C)CCCNc1ccc2nnn3c4ccc([N+](=O)[O-])cc4c(=O)c1c23 | 7.77 | 15 | 12.3 | 12.3 | 15.9 | 11.3 | 8.55 | 12.9 | 11 | 9.5
C=CCn1c(=O)c(-c2ccccc2)c(O)c2ccccc21 | > 100 |  | > 100 | > 100 | > 100 | > 100 | > 100 | > 100 | > 100 | > 100
COc1cc(NS(C)(=O)=O)ccc1N1Cc2cnc3ccc4[nH]ccc1c4c23 | > 100 | 64.6 | > 100 | > 100 | > 100 | > 100 |  | > 100 | > 100 | 66.6
CC(C)(C)OC(=O)NCCNC(=O)OCc1ccccc1 | > 100 | > 100 |  | > 100 | > 100 |  | > 100 | > 100 | > 100 | > 100
O=C1c2c(ccc3c2CCCC3)CC12Cc1ccccc1C2 | > 49.8 | 39.6 | 26.1 | > 100 | > 100 | 38.8 | > 100 | > 100 | 48.9 | > 100
O=C1NC(N2CCCC(CO)C2)=N/C1=C\c1ccc(O)cc1 (stereo not given) | > 100 | > 100 | > 100 | > 100 | > 100 | > 100 | > 100 | > 100 | > 100 | > 100
COc1c(-c2ccc3c(c2)OCO3)oc2cc3c(c(OC)c2c1=O)OCO3 | > 100 | 56.9 | 39.3 | 36.2 | 44.4 | 4.1 | 44.9 | > 100 | 74.9 | 47.1
CCOC(=O)C1C(=O)C=C(c2cc(C)ccc2O)CC1c1cccc(Br)c1 (stereo not given) | 10.4 | 39.4 | 40.7 | 8.81 | 21.2 | 44.2 |  | > 100 | 84.8 | 33.1

SMILES | TGI [1] [µM] | TGI [2] [µM] | TGI [3] [µM] | TGI [4] [µM] | TGI [5] [µM] | TGI [6] [µM] | TGI [7] [µM] | TGI [8] [µM] | TGI [9] [µM] | TGI [10] [µM]
O=C1N[C@@H](c2c[nH]c3ccc(Br)cc23)C(=O)N[C@H]1c1c[nH]c2ccc(Br)cc12 | 37 | 29.4 | 21.8 | 16.8 | 20.7 | 26.6 | 9.03 | 26.2 | 28.4 | 27.4
CC(C)(C)C(=O)C(C#N)C(=O)C(C)(C)C | > 100 | > 100 | > 100 | > 100 | > 100 | > 100 | > 100 | > 100 | > 100 | > 100
COc1ccc(N=Nc2ccc3oc(=O)c(C(=O)Nc4ccc(OC)cc4)cc3c2)cc1 | 45.2 | 39.5 | 23.8 | 54.8 | > 100 | 30.8 | 54.3 | 66.1 | 46.6 | 45.2
CC(C)(Oc1ccc(C2C[C@H]2Cl)cc1)C(=O)O (stereo not given in full) | > 100 | > 100 | > 100 | > 100 | > 100 | > 100 | > 100 | > 100 | > 100 | > 100
CC(C)Oc1c(O)c2c3c(oc(=O)n3C=CC2c2ccccc2F)c1OC(C)C (stereo not given) | > 100 | 34.5 | 66.7 | 70 | > 100 | 44.3 | > 100 | > 100 | > 100 | > 100
Cc1ccc(-n2cc(-c3ccc(Cl)cc3)c3c(NNC(=S)NCc4ccccc4)ncnc32)cc1 | 68.2 | 20.1 | 16.8 | 76.1 | > 100 | > 100 |  | > 100 | 37.4 | 24.3
O=S(=O)(CC#CCS(=O)(=O)c1ccccc1)c1ccccc1 | 4 | 19.4 | 2.39 | 3.83 | 4.16 | 16.1 | 5.55 | > 100 | 2.91 | 12.4
COc1cccc2c(NNc3ccc(Cl)cc3)c3ccc([N+](=O)[O-])cc3nc12 | 27.3 | > 100 | 20.3 | > 100 | > 100 | 28.8 |  | > 100 | 36.3 | 75.3
COc1ccc(/C=N/NC(=O)c2ccccc2Nc2ccccc2C(=O)N/N=C/c2ccc(OC)c(OC)c2)cc1OC | > 100 | > 100 | > 100 | > 100 | > 100 | > 100 | > 100 | > 100 | > 100 | > 100
Clc1ccc(CCN2CCN(CCCc3ccccc3)CC2)cc1Cl | 27.8 | 36.4 | 28.4 | 31.1 | 31.4 | 44.7 |  | 51.6 | 30.9 | 29.8
CCC1(CC)C(=O)N(C(=O)c2ccc(Cl)cc2)N(C(=O)c2ccccc2Cl)C1=O | > 100 | > 100 | > 100 | 43.9 | > 100 | > 100 | > 100 | 89.8 | > 100 | > 100
C[Si](C)(C)C1=C2C(=O)c3ccccc3C(=O)C2=C([Si](C)(C)C)[C@@H]2CCCC[C@H]12 | > 100 | > 100 | > 100 | > 100 | > 100 | > 100 |  | > 100 | > 100 | > 100
N#C/C(=C/NC(=S)Nc1ccc(S(N)(=O)=O)cc1)C(N)=O | > 100 |  | > 100 | > 100 | > 100 | > 100 | > 100 | > 100 | > 100 | > 100
CC(C)(C)OC(=O)N1CC(COS(C)(=O)=O)c2ccc(O)cc21 (stereo not given) | 5.68 | 2.9 | 10.3 | 3.21 | 3.98 | 3.98 | 3.05 | 9.57 | 7.25 | 6.77
C=C(Cl)C(Cl)(CBr)CCC(Cl)C(C)C (stereo not given) | 22.1 | 4.29 | 5.96 | 20.6 | 16.3 |  | 5.66 | 11.8 | 3.45 | 33.2
CC(=S)NC1C(Oc2ccc3c(C)cc(=O)oc3c2)OC(CO)C(O)C1O (stereo not given) | > 100 | > 100 | > 100 | > 100 | > 100 | > 100 | > 100 | > 100 | > 100 | > 100
COc1cccc(C(=O)C(O)c2cccc(OC)c2OC)c1OC (stereo not given) | > 100 | > 100 | > 100 | > 100 | > 100 | > 100 | > 100 | > 100 | > 100 | > 100
COc1cc(C=Nc2ccc(Oc3ccc(Cl)cc3)c(Cl)c2)cc(OC)c1OC | 39.2 | 45.9 | 29.2 | > 100 | 51.3 | 48.6 | 57.9 | > 100 | 48.4 | 40.3
O=c1n(CCO)nc2n1CCCN2 | > 100 | > 100 | > 100 | > 100 | > 100 | > 100 | > 100 | > 100 | > 100 | > 100
C=CC(C)(C)c1cc([C@@H]2COc3cc(O)ccc3C2=O)c(O)c(OC)c1OC | 32.8 | 33.3 | 24.5 | 21.5 | 26 | 44.2 | 25.6 | > 100 | 23.3 | 31.3
